The values below come from PMC10609173, “Antiplasmodial and Antileishmanial Activities of a New Limonoid and Other Constituents from the Stem Bark of Khaya senegalensis” (Molecules, 2023).

≈ marks a conversion by molar mass, not a printed value. Bounds are passed on as bounds.

On the set-up of data set [1]: method as in PMID 30663371. The note with it: limonoid from Meliaceae; cited from earlier work.
For data set [2], the system named is multidrug-resistant Dd2 strain of Plasmodium falciparum (PfDd2). Nature of the data set: Antiplasmodial SYBR Green I fluorescence assay, PfDd2 strain. The class given is cell-based. The note with it: for IC50: Plasmodium falciparum, DD2, 72 h, read-out: Antiplasmodial Activity PfDd2 IC50 ± SD, PfDd2 strain, ring stage, 72 h. An excerpt: (§1) The parasite strains used in this study are continuously cultured at the Antimicrobial and Biocontrol Agents Unit of the University of Yaoundé I, and were graciously provided by BEI Resources (https://www.beiresources.org (accessed on 16 February 2019)). They comprise the Leishmania donovani strain (1S(MHOM/SD/62/1S), the multiresistant (PfDd2), and the chloroquine-sensitive (Pf3D7-(MRA-102)) strains of Plasmodium falciparum. RPMI 1640 media supplemented with 0.2% sodium bicarbonate (Sigma Aldrich, Billings, MT, USA), 0.5% Albumax II (Gibco), 1% hypoxanthine 100X (Gibco, Billings, MT, USA), 25 mM HEPES, and 0.04% gentamicin (Sigma Aldrich) was used to sustain P. falciparum strains in sterile petri dishes. Fresh red blood cells from healthy O^+ human volunteers were also added to the medium. These cells were suspended at 4% hematocrit (v/v) and incubated at 37 °C in a humidified environment with 5% CO2. To regularly maintain the culture, fresh medium was added to the culture every day. Thin blood smears stained with 10% Giemsa were used to microscopically monitor cell-cycle transition and parasitemia under immersion oil.
(§2) The antiplasmodial efficacy of the samples was evaluated using the SYBR Green I-based fluorescence assay, as previously reported by Smilkstein et al., on a sorbitol-synchronized ring stage culture of Plasmodium falciparum (PfDd2 and Pf3D7 strains). The test relies on the development of intense fluorescence following SYBR green binding to the exposed DNA found in wells containing healthy cells. Ninety microliters of parasites prepared with 1% hematocrit and 2% parasitemia and 10 μL of test sample extracts, fractions, isolated chemicals, chloroquine, and artemisinin were each added in triplicate into wells of a flat-bottomed microplate. The final test concentration values for the samples varied from 50 μg/mL-0.08 μg/mL and 100 μg/mL-0.16 μg/mL for extract/fractions. Following a 72 h incubation at 37 °C, 100 μL of SYBR Green I solution prepared with lysis buffer (0.2 μL of 10,000 SYBR Green I per mL of lysis buffer) made of EDTA (5 mM), Tris (20 mM; pH 7.5), Triton X-100 (0.08%; v/v), and saponin (0.008%; m/v) was added to each well. Fluorescence measurements were taken using an Infinite M200 microplate reader (Tecan, MT, USA) at emission and excitation wavelengths of 538 and 485 nm, respectively.
(§3) The resulting fluorescence readings were used to calculate the growth inhibition percentages relative to the negative control for each sample and for each of the tested doses. GraphPad Prism 8.0 software was used to generate concentration-response curves from the nonlinear regression fit to determine the median inhibitory or cytotoxic concentration (IC50/CC50). The resistance index (RI) for antiplasmodial tests was calculated as the ratio between the samples’ IC50 values for the chloroquine-sensitive strain 3D7 and the multiresistant strain Dd2 [69]. Inhibitors with an RI value below 1 were considered to act preferentially on the resistant strain. Based on each inhibitor’s antiparasitic efficacy (IC50) and cell toxicity (CC50), selectivity indices (SI) were calculated [SI = CC50 (RAW)/IC50 (Parasites)]. Samples were classified as poorly toxic to RAW cells if their SI values were greater than 10 [70].

Data set [3] has as its system promastigote form of Leishmania donovani (1S(MHOM/SD/62/1S)). In words: Antileishmanial resazurin-based assay on promastigotes. The class given is cell-based. The note with it: for IC50: Leishmania donovani, L. donovani promastigotes, 28 °C, read-out: Antileishmanial Activity IC50 ± SD; for Antileishmanial Selectivity (SI): SI = CC50 against macrophages/IC50 against promastigotes. As to the method: A T-75 cm^2 cell culture flask was filled with complete Medium 199 [M199 supplemented with 10% heat-inactivated fetal bovine serum (HIFBS) and 100 IU/mL penicillin/streptomycin (Sigma, Darmstadt, Germany)] and used to grow the promastigote forms of Leishmania donovani. Every 72 h, flasks were subcultured and incubated at 28 °C.
The resazurin-based assay was used to evaluate the antileishmanial activity of the extract (100 μg/mL–0.16 μg/mL), major fractions (100 μg/mL–0.16 μg/mL), and isolated compounds (50 μg/mL–0.08 μg/mL) against the promastigote form of Leishmania donovani. Briefly, 10 μL of inhibitors at various triplicate doses (as prescribed for the antiplasmodial assay) were added to 90 μL of promastigotes from a logarithmic phase culture at a density of 4.10^5 parasites/mL. The plates were incubated for 28 h at 28 °C, and 10 μL of resazurin solution (Sigma, Darmstadt, Germany) was added. Amphotericin B (Sigma, Darmstadt, Germany) (10 μg–0.016 μg/mL) and 0.1% DMSO-treated wells were used as the […], respectively. After a further 44 h of incubation, plates were read using a Magelan Infinite M200 fluorescence plate reader (Tecan, Männedorf, Switzerland) at excitation and emission wavelengths of 530 and 590 nm, respectively.
as §3
A general note: Alamar Blue is a resazurin reagent that responds to reducing activity.

Data set [4] deals with chloroquine-sensitive 3D7 strain of Plasmodium falciparum (Pf3D7). Nature of the data set: Antiplasmodial SYBR Green I fluorescence assay, Pf3D7 strain. The class given is cell-based. As to conditions: 3D7, Pf3D7 strain, ring stage, 72 h, read-out: Antiplasmodial Activity Pf3D7 IC50 ± SD.
Source text: as §1, §2, §3

The test system of the next data set is Leishmania amazonensis. Also on record: method as in PMID 21343887. The note with it: cited from earlier work.
The next data set deals with amastigote. Also on record: method as in PMID 15070160. The note with it: from Pourouma guianensis; cited from earlier work.
Data set [5] is described as follows: Cytotoxicity assay (resazurin) on RAW 264.7 macrophages. The class given is cell-based, murine. The note with it: mouse, RAW 264.7 macrophage cells; RAW 264.7 macrophages, 48 h incubation, resazurin; read-out: Cytotoxicity on RAW 264.7 Cells CC50 ± SD. As to the method:
The murine macrophage RAW 264.7 cell line was grown in DMEM (Dulbecco’s modified Eagle’s medium) containing 1% penicillin-streptomycin, 1% nonessential amino acids (NEA), and 10% HIFBS at 37 °C, and 5% CO2 in a humidified environment. A reverse Etaluma fluorescence microscope was used to view the cells every day, and the growth media was replaced every 72 h. At 80% confluence, cells were isolated using 0.25% Trypsine-EDTA (Gibco, MT, USA).
The murine macrophages, RAW 264.7 cells, were plated into a 96-well cell culture treated flat-bottomed plate ([…], Inc., Newton, NC 28658, USA) at a density of 10 × 10^4 cells/100 μL/well and incubated overnight to enable cell adhesion. A fresh complete medium containing serially diluted concentrations of crude extract, fractions, and compounds was used to replace the previous medium. The final assay concentration values for extracts/fractions and compounds varied from 400 μg/mL to 0.8 μg/mL and 100–0.16 μg/mL, respectively. Podophyllotoxin (Sigma-Aldrich, Munich, Germany) was used as a positive control at a maximum dose of 10 μM. After 48 h of incubation, 10 μL of resazurin solution (0.15 mg/mL dissolved in PBS) was added to each well, and the plates were incubated for an additional 4 h. Fluorescence data were finally recorded with a Magellan Infinite M200 plate reader (Tecan, Germany) at excitation and emission wavelengths of 530 nm and 590 nm, respectively.
as §3

Data set [6] relates to promastigote. Also on record: method as in PMID 15070160. The note with it: from Pourouma guianensis; cited from earlier work.
The test system of data set [7] is clinical isolate of P. falciparum. More on the design: method as in doi:10.1080/13880200601009123. The note with it: cited from earlier work.
On the set-up of data set [8]: method as in PMID 30663371. The note with it: limonoid from Meliaceae; cited from earlier work. The source holds these as a separate data set.
On the set-up of data set [9]: method as in PMID 36249737, PMID 20162079. The note with it: 400 mg/kg; from leaf extract of Osyris quadripartita; cited from earlier work.
The test system of data set [10] is promastigote. More on the design: method as in PMID 24949478. The note with it: isolate from Canarium patentinervium; cited from earlier work.

For trigilgianin, the “IC50, antileishmanial activity” value in [1] was 6.044 µg/mL.

In general, IC50 refers to the midpoint of a concentration-inhibition curve. In general, CC50 refers to the concentration giving 50% cytotoxicity. In the case of `CC1(C)CC[C@]2(C(=O)O)CC[C@]3(C)C(=CC[C@@H]4[C@@]5(C)CC[C@H](O)C(C)(C)[C@@H]5CC[C@]43C)[C@@H]2C1` [Oleanolic acid (7), oleanolic acid], the figures for the IC50 in data set [2], in data set [3] and in [4] were 43.6 ± 0.73 µg/mL (≈ 95.4 µM), 30.6 ± 0.67 µg/mL (≈ 67.1 µM) and 93.58 ± 0.92 µg/mL (≈ 205 µM), respectively. Besides, in [3], the “Antileishmanial Selectivity (SI)” value is given as “˃13.06”. For the same compound, in the data set with Leishmania amazonensis, the “IC50, growth of Leishmania amazonensis” value was 439.5 µg/mL. Also, the “IC50, antiamastigote inhibitory activity” value in the data set on amastigote is 27 µg/mL (≈ 59.1 µM). Moreover, the CC50 at 48 h in data set [5] is > 400 µg/mL. For the same compound, the “IC50, antipromastigote effect” value with promastigote [6] was 10 µg/mL (≈ 21.9 µM). Also, the “IC50, growth of clinical isolate of P. falciparum” value in data set [7] is 15.2 µg/mL.

On to `CC(=O)O[C@@H]1C[C@H]2C(C)(C)OC(=O)C=C[C@]2(C)[C@H]2CC[C@@]3(C)[C@@H](c4ccoc4)OC(=O)[C@H]4O[C@]43[C@@]21C` [7α-obacunyl acetate], for which the “IC50, antiplasmodial activity” value in data set [8] was 5.14 µg/mL.

As for `Oc1cc(O)c2c(c1)O[C@H](c1ccc(O)c(O)c1)[C@@H](O)C2` [Catechin (9), catechin], the “Antiplasmodial Activity PfDd2 IC50 ± SD” value in [2] (PfDd2 strain, ring stage, 72 h) is 2.93 ± 0.02 µg/mL. In addition, the IC50 worked out at 2.95 µg/mL (≈ 10.2 µM) in data set [2], 27 ± 0.7 µg/mL (≈ 92.9 µM) in data set [3] and 111.96 ± 0.04 µg/mL (≈ 386 µM) in [4]. For the same compound, the “Antileishmanial Selectivity (SI)” value in [3] was >14.83. Further, the “antimalarial effect, suppression value” in [9] was 64.26%. For the same compound, in the data set on promastigote [10], the “IC50, antipromastigote activity” value is 478.93 ± 0.28 µg/mL (≈ 1650 µM). In data set [5], the CC50 at 48 h was > 400 µg/mL.
